Data: the kinase profiling compilation of Christmann-Franck et al. (2016)

Tests used:
Test in all cases: radiometric filter-binding kinase assay, Kinase HotSpot
[1] = target: ACVRL1 (human) (UniProt P37023); conditions: compound 0.5 µM; ATP 10 µM
[2] = target: BRSK1 (human) (UniProt Q8TDC3); conditions: compound 0.5 µM; ATP 10 µM
[3] = target: BRSK2 (human) (UniProt Q8IWQ3); conditions: compound 0.5 µM; ATP 10 µM
[4] = target: CAMK1D (human) (UniProt Q8IU85); conditions: compound 0.5 µM; ATP 10 µM
[5] = target: CAMK2B (human) (UniProt Q13554); conditions: compound 0.5 µM; ATP 10 µM
[6] = target: CAMK2D (human) (UniProt Q13557); conditions: compound 0.5 µM; ATP 10 µM
[7] = target: CDK6 CCND1 (human) (UniProt Q00534+P24385); conditions: compound 0.5 µM
[8] = target: CDK6 CCND3 (human) (UniProt P30281+Q00534); conditions: compound 0.5 µM
[9] = target: CDK9 CCNK (human) (UniProt O75909+P50750); conditions: compound 0.5 µM
[10] = target: CLK1 (human) (UniProt P49759); conditions: compound 0.5 µM; ATP 10 µM
[11] = target: CSF1R (human) (UniProt P07333); conditions: compound 0.5 µM; ATP 10 µM
[12] = target: CSNK1A1 (human) (UniProt P48729); conditions: compound 0.5 µM; ATP 10 µM
[13] = target: CSNK1G3 (human) (UniProt Q9Y6M4); conditions: compound 0.5 µM; ATP 10 µM
[14] = target: DYRK1B (human) (UniProt Q9Y463); conditions: compound 0.5 µM; ATP 10 µM
[15] = target: DYRK3 (human) (UniProt O43781); conditions: compound 0.5 µM; ATP 10 µM
[16] = target: EPHA4 (human) (UniProt P54764); conditions: compound 0.5 µM; ATP 10 µM
[17] = target: ERBB2 (human) (UniProt P04626); conditions: compound 0.5 µM; ATP 10 µM
[18] = target: FGFR3 (human) (UniProt P22607); conditions: compound 0.5 µM; ATP 10 µM
[19] = target: GRK5 (human) (UniProt P34947); conditions: compound 0.5 µM; ATP 10 µM
[20] = target: HIPK1 (human) (UniProt Q86Z02); conditions: compound 0.5 µM; ATP 10 µM
[21] = target: HIPK4 (human) (UniProt Q8NE63); conditions: compound 0.5 µM; ATP 10 µM
[22] = target: MAP3K14 (human) (UniProt Q99558); conditions: compound 0.5 µM; ATP 10 µM
[23] = target: MAP3K2 (human) (UniProt Q9Y2U5); conditions: compound 0.5 µM; ATP 10 µM
[24] = target: MAP3K7 TAB1 (human) (UniProt O43318+Q15750); conditions: compound 0.5 µM; ATP 10 µM
[25] = target: MAPK11 (human) (UniProt Q15759); conditions: compound 0.5 µM; ATP 10 µM
[26] = target: MAPKAPK2 (human) (UniProt P49137); conditions: compound 0.5 µM; ATP 10 µM
[27] = target: MST4 (human) (UniProt Q9P289); conditions: compound 0.5 µM; ATP 10 µM
[28] = target: NLK (human) (UniProt Q9UBE8); conditions: compound 0.5 µM; ATP 10 µM
[29] = target: NTRK3 (human) (UniProt Q16288); conditions: compound 0.5 µM; ATP 10 µM
[30] = target: PRKCE (human) (UniProt Q02156); conditions: compound 0.5 µM; ATP 10 µM
[31] = target: RPS6KA2 KD1 KD2 (human) (UniProt Q15349); conditions: compound 0.5 µM; ATP 10 µM
[32] = target: RPS6KA3 KD1 KD2 (human) (UniProt P51812); conditions: compound 0.5 µM; ATP 10 µM
[33] = target: SGK3 (human) (UniProt Q96BR1); conditions: compound 0.5 µM; ATP 10 µM
[34] = target: SLK (human) (UniProt Q9H2G2); conditions: compound 0.5 µM; ATP 10 µM
[35] = target: SRC (human) (UniProt P12931); conditions: compound 0.5 µM; ATP 10 µM
[36] = target: STK17A (human) (UniProt Q9UEE5); conditions: compound 0.5 µM; ATP 10 µM
[37] = target: STK24 (human) (UniProt Q9Y6E0); conditions: compound 0.5 µM; ATP 10 µM
[38] = target: STK25 (human) (UniProt O00506); conditions: compound 0.5 µM; ATP 10 µM
[39] = target: TTK (human) (UniProt P33981); conditions: compound 0.5 µM; ATP 10 µM
[40] = target: TYRO3 (human) (UniProt Q06418); conditions: compound 0.5 µM; ATP 10 µM
[41] = target: YES1 (human) (UniProt P07947); conditions: compound 0.5 µM; ATP 10 µM

MAP3K14 (human), sequence (Q99558 whole entry, looked up): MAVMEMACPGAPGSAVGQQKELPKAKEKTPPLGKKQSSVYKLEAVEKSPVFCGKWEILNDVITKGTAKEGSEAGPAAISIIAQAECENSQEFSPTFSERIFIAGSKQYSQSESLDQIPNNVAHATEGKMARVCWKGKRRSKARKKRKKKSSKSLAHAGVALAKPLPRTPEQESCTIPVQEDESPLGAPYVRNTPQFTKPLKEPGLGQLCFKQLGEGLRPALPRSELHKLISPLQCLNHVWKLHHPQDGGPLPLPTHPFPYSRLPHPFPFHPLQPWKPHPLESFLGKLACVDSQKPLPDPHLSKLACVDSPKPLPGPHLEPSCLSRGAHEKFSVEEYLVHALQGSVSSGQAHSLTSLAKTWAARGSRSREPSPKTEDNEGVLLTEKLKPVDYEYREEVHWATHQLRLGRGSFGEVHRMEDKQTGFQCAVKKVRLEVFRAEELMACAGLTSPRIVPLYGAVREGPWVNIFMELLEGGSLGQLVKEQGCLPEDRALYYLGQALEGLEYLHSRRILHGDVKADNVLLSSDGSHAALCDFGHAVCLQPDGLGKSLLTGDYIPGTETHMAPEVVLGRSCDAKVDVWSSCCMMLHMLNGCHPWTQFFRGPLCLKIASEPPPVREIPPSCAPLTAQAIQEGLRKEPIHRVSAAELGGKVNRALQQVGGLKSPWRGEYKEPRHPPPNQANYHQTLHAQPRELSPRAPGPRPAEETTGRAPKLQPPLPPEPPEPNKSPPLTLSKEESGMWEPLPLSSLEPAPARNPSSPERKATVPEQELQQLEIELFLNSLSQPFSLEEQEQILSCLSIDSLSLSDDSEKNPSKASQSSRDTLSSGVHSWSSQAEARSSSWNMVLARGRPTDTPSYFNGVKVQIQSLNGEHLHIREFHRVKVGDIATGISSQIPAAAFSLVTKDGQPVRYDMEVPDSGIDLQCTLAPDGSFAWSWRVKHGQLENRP
BRSK1 (human), sequence (Q8TDC3 whole entry, looked up): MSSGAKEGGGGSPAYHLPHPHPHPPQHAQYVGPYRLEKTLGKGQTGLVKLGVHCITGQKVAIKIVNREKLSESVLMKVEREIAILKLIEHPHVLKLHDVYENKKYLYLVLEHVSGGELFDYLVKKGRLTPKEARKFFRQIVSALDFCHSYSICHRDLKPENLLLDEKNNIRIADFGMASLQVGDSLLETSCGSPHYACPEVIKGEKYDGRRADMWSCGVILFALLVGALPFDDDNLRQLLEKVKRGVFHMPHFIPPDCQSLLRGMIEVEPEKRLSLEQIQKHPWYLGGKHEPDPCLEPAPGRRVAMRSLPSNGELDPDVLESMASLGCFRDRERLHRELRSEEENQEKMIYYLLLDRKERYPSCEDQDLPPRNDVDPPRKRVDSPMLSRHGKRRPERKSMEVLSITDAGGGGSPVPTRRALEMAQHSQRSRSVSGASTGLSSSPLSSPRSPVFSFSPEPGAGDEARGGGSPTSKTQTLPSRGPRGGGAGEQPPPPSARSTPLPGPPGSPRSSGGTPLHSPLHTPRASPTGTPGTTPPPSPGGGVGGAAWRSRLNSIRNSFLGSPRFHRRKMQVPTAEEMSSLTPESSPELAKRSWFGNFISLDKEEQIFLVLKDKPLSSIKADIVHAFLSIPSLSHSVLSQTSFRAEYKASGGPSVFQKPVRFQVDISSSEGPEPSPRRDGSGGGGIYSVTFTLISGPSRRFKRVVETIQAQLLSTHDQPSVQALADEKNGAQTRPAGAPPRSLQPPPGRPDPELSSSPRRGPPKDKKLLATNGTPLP
CSNK1A1 (human), sequence (P48729 whole entry, looked up): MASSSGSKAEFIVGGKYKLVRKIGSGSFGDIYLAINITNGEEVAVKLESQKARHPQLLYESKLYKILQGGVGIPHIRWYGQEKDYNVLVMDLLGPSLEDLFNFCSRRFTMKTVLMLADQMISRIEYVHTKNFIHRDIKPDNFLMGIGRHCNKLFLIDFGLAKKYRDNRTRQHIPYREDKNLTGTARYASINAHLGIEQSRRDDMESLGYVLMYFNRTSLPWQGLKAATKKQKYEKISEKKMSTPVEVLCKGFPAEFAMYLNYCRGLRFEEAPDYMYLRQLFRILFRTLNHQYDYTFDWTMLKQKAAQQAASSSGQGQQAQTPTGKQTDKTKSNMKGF
TTK (human), sequence (P33981 whole entry, looked up): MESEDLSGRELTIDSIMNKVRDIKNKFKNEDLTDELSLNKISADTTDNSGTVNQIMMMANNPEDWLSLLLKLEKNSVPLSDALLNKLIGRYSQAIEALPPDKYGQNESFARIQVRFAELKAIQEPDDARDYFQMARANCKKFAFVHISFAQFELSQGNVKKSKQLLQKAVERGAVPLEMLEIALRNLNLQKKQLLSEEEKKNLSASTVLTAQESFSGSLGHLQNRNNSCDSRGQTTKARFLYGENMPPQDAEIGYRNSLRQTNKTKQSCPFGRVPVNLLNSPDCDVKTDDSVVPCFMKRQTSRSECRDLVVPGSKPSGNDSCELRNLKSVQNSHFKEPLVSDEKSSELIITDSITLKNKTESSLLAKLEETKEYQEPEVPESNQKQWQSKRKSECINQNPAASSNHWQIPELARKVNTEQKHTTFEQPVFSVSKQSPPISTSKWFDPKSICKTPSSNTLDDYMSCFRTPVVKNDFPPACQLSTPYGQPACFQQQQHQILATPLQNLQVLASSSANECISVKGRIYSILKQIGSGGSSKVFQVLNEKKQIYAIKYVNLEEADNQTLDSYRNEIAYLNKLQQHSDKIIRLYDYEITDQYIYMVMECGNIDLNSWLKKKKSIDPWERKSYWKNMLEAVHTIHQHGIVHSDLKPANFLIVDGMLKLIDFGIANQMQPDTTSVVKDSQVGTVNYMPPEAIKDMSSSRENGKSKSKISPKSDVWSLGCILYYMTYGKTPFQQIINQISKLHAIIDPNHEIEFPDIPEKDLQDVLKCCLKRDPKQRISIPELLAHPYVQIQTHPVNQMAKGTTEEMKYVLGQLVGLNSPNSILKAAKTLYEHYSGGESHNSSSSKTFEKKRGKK
GRK5 (human), sequence (P34947 whole entry, looked up): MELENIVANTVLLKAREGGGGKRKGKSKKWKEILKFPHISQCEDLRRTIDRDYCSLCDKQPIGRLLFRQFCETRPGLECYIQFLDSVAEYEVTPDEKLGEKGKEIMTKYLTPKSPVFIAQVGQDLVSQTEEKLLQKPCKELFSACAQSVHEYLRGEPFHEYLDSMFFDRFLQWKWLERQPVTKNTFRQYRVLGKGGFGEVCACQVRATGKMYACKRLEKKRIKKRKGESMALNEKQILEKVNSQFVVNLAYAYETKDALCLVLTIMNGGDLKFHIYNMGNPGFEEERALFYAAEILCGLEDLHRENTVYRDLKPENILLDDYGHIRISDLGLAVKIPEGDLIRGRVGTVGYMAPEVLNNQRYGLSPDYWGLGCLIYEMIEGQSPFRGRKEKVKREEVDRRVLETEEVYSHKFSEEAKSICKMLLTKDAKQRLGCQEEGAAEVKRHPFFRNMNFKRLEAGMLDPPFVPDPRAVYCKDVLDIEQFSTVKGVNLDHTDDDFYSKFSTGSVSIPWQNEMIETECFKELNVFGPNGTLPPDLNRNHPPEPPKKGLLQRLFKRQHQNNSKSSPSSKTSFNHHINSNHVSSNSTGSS
SRC (human), sequence (P12931 whole entry, looked up): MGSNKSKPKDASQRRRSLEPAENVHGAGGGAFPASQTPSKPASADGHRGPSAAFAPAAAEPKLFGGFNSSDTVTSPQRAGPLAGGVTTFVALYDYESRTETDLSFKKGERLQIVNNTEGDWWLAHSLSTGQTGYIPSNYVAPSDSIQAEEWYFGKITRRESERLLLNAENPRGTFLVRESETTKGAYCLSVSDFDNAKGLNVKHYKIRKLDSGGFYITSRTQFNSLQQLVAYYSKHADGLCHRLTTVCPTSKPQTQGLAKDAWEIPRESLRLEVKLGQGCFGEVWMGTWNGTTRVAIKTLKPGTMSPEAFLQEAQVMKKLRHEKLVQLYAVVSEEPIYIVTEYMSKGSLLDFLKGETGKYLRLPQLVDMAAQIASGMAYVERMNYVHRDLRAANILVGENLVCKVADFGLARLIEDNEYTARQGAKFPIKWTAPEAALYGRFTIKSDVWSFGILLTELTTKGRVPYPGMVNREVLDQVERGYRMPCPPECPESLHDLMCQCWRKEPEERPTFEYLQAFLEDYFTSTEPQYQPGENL
STK24 (human), sequence (Q9Y6E0 whole entry, looked up): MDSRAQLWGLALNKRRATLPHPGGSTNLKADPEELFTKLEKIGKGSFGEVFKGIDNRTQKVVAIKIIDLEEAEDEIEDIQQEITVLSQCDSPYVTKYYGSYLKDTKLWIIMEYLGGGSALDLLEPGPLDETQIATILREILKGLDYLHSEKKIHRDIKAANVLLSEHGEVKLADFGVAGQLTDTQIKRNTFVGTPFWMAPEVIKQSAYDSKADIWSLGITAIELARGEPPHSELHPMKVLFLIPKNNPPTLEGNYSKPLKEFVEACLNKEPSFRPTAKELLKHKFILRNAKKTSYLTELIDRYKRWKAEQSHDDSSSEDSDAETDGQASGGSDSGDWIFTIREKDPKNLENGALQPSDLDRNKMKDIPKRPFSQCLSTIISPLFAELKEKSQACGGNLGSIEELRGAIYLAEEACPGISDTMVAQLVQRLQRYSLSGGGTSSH
CSNK1G3 (human), sequence (Q9Y6M4 whole entry, looked up): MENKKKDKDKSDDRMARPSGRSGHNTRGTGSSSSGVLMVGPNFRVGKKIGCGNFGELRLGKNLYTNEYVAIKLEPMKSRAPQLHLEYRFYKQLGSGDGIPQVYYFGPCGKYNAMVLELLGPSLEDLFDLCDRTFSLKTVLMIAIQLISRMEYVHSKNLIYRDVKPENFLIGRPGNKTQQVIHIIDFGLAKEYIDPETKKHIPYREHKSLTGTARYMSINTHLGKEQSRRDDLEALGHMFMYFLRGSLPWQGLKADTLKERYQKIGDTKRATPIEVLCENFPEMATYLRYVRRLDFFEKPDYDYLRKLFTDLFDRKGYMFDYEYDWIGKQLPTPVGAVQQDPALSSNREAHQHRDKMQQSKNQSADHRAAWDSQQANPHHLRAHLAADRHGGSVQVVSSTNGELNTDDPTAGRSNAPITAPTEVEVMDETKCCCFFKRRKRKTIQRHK

Structure (SMILES): O=c1c2ccccc2[nH]c(=S)n1CCN1CCC(=C(c2ccc(F)cc2)c2ccc(F)cc2)CC1
- residual activity [1]: 101%
- residual activity [2]: 98.3%
- residual activity [3]: 99.8%
- residual activity [4]: 96.8%
- residual activity [5]: 102%
- residual activity [6]: 97.9%
- residual activity ([7]; ATP 10 µM): 98.7%
- residual activity ([8]; ATP 10 µM): 98.2%
- residual activity ([9]; ATP 10 µM): 104%
- residual activity [10]: 113%
- residual activity [11]: 102%
- residual activity [12]: 106%
- residual activity [13]: 97.1%
- residual activity [14]: 97.1%
- residual activity [15]: 101%
- residual activity [16]: 99.4%
- residual activity [17]: 98.8%
- residual activity [18]: 99.3%
- residual activity [19]: 103%
- residual activity [20]: 107%
- residual activity [21]: 98.4%
- residual activity [22]: 75.7%
- residual activity [23]: 99.6%
- residual activity [24]: 103%
- residual activity [25]: 99.3%
- residual activity [26]: 106%
- residual activity [27]: 91.6%
- residual activity [28]: 99.5%
- residual activity [29]: 98.9%
- residual activity [30]: 100%
- residual activity [31]: 107%
- residual activity [32]: 99.8%
- residual activity [33]: 114%
- residual activity [34]: 103%
- residual activity [35]: 103%
- residual activity [36]: 103%
- residual activity [37]: 93.4%
- residual activity [38]: 96.6%
- residual activity [39]: 96.3%
- residual activity [40]: 91.1%
- residual activity [41]: 99.2%

Structure (SMILES): Cn1cc(/C=C2\C(=O)Nc3ccc(S(N)(=O)=O)cc32)c2ccccc21
- residual activity [1]: 99.1%
- residual activity [2]: 47.8%
- residual activity [3]: 65.5%
- residual activity [4]: 69.6%
- residual activity [5]: 86.5%
- residual activity [6]: 66.8%
- residual activity ([7]; ATP 10 µM): 82.4%
- residual activity ([8]; ATP 10 µM): 81.4%
- residual activity ([9]; ATP 10 µM): 86.8%
- residual activity [10]: 88.3%
- residual activity [11]: 82.5%
- residual activity [12]: 105%
- residual activity [13]: 109%
- residual activity [14]: 104%
- residual activity [15]: 89.7%
- residual activity [16]: 80.5%
- residual activity [17]: 120%
- residual activity [18]: 33.8%
- residual activity [19]: 86.3%
- residual activity [20]: 97.2%
- residual activity [21]: 86.2%
- residual activity [22]: 123%
- residual activity [23]: 92.1%
- residual activity [24]: 48.9%
- residual activity [25]: 93.8%
- residual activity [26]: 101%
- residual activity [27]: 101%
- residual activity [28]: 90.4%
- residual activity [29]: 1.18%
- residual activity [30]: 77.3%
- residual activity [31]: 9.26%
- residual activity [32]: 12.4%
- residual activity [33]: 94.7%
- residual activity [34]: 28.6%
- residual activity [35]: 45.1%
- residual activity [36]: 57.5%
- residual activity [37]: 80.2%
- residual activity [38]: 83.5%
- residual activity [39]: 97.3%
- residual activity [40]: 90.5%
- residual activity [41]: 24.2%

Structure (SMILES): O=c1[nH]c2ccccc2n1C1CCN(Cc2ccc(-c3nc4cc5[nH]cnc5cc4nc3-c3ccccc3)cc2)CC1
- residual activity [1]: 105%
- residual activity [2]: 98.3%
- residual activity [3]: 106%
- residual activity [4]: 107%
- residual activity [5]: 104%
- residual activity [6]: 97.7%
- residual activity [7]: 105%
- residual activity [8]: 99.1%
- residual activity [9]: 108%
- residual activity [10]: 109%
- residual activity [11]: 97%
- residual activity [12]: 96%
- residual activity [13]: 96.5%
- residual activity [14]: 97.9%
- residual activity [15]: 101%
- residual activity [16]: 97.1%
- residual activity [17]: 88.9%
- residual activity [18]: 101%
- residual activity [19]: 109%
- residual activity [20]: 106%
- residual activity [21]: 99.3%
- residual activity [22]: 96.8%
- residual activity [23]: 92.4%
- residual activity [24]: 84.1%
- residual activity [25]: 102%
- residual activity [26]: 98.7%
- residual activity [27]: 102%
- residual activity [28]: 104%
- residual activity [29]: 116%
- residual activity [30]: 109%
- residual activity [31]: 101%
- residual activity [32]: 96.6%
- residual activity [33]: 108%
- residual activity [34]: 97.7%
- residual activity [35]: 103%
- residual activity [36]: 98.2%
- residual activity [37]: 90.7%
- residual activity [38]: 89.8%
- residual activity [39]: 104%
- residual activity [40]: 103%
- residual activity [41]: 90.8%

Structure (SMILES): COc1cccc(-c2cc(=O)c3ccccc3o2)c1N
- residual activity [1]: 93.5%
- residual activity [2]: 84.9%
- residual activity [3]: 98%
- residual activity [4]: 65.3%
- residual activity [5]: 103%
- residual activity [6]: 91.5%
- residual activity ([7]; ATP 10 µM): 95.5%
- residual activity ([8]; ATP 10 µM): 99.3%
- residual activity ([9]; ATP 10 µM): 98.3%
- residual activity [10]: 97.7%
- residual activity [11]: 101%
- residual activity [12]: 95.6%
- residual activity [13]: 97.7%
- residual activity [14]: 88.1%
- residual activity [15]: 90.3%
- residual activity [16]: 98%
- residual activity [17]: 106%
- residual activity [18]: 91%
- residual activity [19]: 97.3%
- residual activity [20]: 104%
- residual activity [21]: 98.6%
- residual activity [22]: 108%
- residual activity [23]: 103%
- residual activity [24]: 98.7%
- residual activity [25]: 108%
- residual activity [26]: 102%
- residual activity [27]: 110%
- residual activity [28]: 96.4%
- residual activity [29]: 99.3%
- residual activity [30]: 82.4%
- residual activity [31]: 96.4%
- residual activity [32]: 93.6%
- residual activity [33]: 101%
- residual activity [34]: 102%
- residual activity [35]: 92.6%
- residual activity [36]: 96.9%
- residual activity [37]: 108%
- residual activity [38]: 106%
- residual activity [39]: 99%
- residual activity [40]: 96.9%
- residual activity [41]: 93.5%
